According to patent US20260184707A1, “PHARMACEUTICAL COMPOUNDS FOR THE TREATMENT OF COMPLEMENT MEDIATED DISORDERS” (ALEXION PHARMACEUTICALS, INC., priority 2022, published 2026):

What follows are compounds tested against T1, Human complement C1s enzyme (Homo sapiens, UniProt P09871) (assay: Human C1s enzyme assay). Settings: human complement C1s enzyme 1.16 nM, substrate Z-L-Lys-SBzl, A405; read-out: IC50 (Stars).
T1 construct: purified from human serum, Complement Technology, Inc; purchased Complement Technology, Inc; host or cells: human serum (plasma-derived native protein)
T1 sequence (P09871 438-688 limits assumed): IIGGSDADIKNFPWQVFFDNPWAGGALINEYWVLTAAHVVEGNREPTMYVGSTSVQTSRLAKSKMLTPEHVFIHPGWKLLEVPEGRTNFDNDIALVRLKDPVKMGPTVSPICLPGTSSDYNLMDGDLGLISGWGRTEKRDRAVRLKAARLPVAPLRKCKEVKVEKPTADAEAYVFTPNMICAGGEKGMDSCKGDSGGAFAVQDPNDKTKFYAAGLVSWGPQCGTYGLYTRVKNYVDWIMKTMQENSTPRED
T1 sequence (P09871 16-437 partner limits assumed): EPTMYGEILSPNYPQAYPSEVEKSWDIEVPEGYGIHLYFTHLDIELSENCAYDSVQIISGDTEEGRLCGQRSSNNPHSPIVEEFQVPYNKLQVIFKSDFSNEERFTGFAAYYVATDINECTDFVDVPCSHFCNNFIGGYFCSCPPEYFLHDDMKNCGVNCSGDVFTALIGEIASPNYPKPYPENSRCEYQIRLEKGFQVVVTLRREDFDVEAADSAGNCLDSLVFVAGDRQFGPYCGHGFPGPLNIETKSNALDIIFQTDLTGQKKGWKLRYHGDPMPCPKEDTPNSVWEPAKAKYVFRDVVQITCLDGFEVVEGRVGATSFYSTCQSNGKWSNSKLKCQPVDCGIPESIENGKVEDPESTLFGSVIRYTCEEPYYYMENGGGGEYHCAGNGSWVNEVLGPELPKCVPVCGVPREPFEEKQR
Format: biochemical
Protocol: The […] values of the compounds of Table 1 were determined with the human C1s enzyme assay described below. Other standard complement assays are also available.
Human complement C1s enzyme (purified from human serum, Complement Technology, Inc.) at 1.16 nM final concentration was incubated with test compound at various concentrations for 5 min at room temperature in 50 mM Tris, 1 M NaCl, pH 7.5. A synthetic substrate Z-L-Lys-SBzl and DTNB (Ellman's reagent) were added to final concentrations of 100 μM each. Absorbance at 405 nm (A405) was recorded at 30 second intervals for […] using a microplate spectrophotometer. IC values were calculated by nonlinear regression of complement C1s reaction rates as a function of test compound concentration.
[…]; ND indicates a compound for which the IC50 value is not determined.

IC50 [nM] | Compound
< 100 | C[C@@H](Nc1cnc(-c2cccc(Cl)c2)n(CC(=O)NCc2cc3cnccc3[nH]2)c1=O)c1ccc2oc3ccccc3c2c1 [Compound 293, (R)-N-((1H-pyrrolo[3,2-c]pyr-idin-2-yl)methyl)-2-(2-(3-chlorophenyl)-5-((1-(dibenzo [b,d]furan-2-yl)ethyl)amino)-6-oxopyrimidin-1(6H)-yl)acet-amide]
< 100 | C[C@@H](Nc1cnc(-c2ccc(C3(F)COC3)cc2)n(CC(=O)NCc2cc3cnccc3[nH]2)c1=O)c1ccc2oc3ccccc3c2c1 [Compound 372, (R)—N-((1H-pyrrolo[3,2-c]pyridine-2-yl)methyl)-2-(5-((1-(dibenzo[b,d]furan-2-yl)ethyl)amino)-2-(4-(3-fluorooxetan-3-yl)phenyl)-6-oxopyrimidin-1(6H)-yl)acetamide]
< 100 | O=C(Cn1c(-c2ccccc2)ncc(Nc2ccc3oc4ccccc4c3c2)c1=O)NCc1cc2cnccc2[nH]1 [Compound 234, N-((1H-pyrrolo[3,2-c]pyridin-2-yl)methyl)-2-(5-(dibenzo [b,d]furan-2-ylamino)-6-oxo-2-phenylpyrimidin-1(6H)-yl)-acetamide]
< 100 | C[C@@H](Nc1ncc(N2CCNCC2)n(CC(=O)NCc2cc3cnccc3[nH]2)c1=O)c1ccc2oc3ccccc3c2c1 [Compound 444, (R)-N-((1H-pyrrolo[3,2-c]pyridin-2-yl)methyl)-2-(3-((1-(dibenzo[b,d]furan-2-yl)ethyl)-amino)-2-oxo-6-(piperazin-1-yl)pyrazin-1(2H)-yl)acetamide]
< 100 | C[C@@H](Nc1cnc(-c2ccccc2F)n(CC(=O)NCc2cc3cnccc3[nH]2)c1=O)c1ccc2c(c1)oc1ccccc12 [Compound 350, (R)—N-((1H-pyrrolo[3,2-c]pyridine-2-yl)methyl)-2-(5-((1-(dibenzo[b,d]furan-3-yl)ethyl)amino)-2-(2-fluorophenyl)-6-oxopyrimidin-1(6H)-yl)acetamide]
100 to 1000 | C[C@@H](Nc1cnc(N2CCN(C(=O)C3CC3)CC2)n(CC(=O)NCc2cc3cnccc3[nH]2)c1=O)c1ccc2oc3ccccc3c2c1 [Compound 468, (R)-N-((1H-pyrrolo[3,2-c]pyridin-2-yl)methyl)-2-(2-(4-(cyclopropanecarbonyl)piper-azin-1-yl)-5-((1-(dibenzo[b,d]furan-2-yl)ethyl)amino)-6-oxopyrimidin-1(6H)-yl)acet-amide]
< 100 | C[C@@H](Nc1ncc(N2CCOCC2)n(CC(=O)NCc2cc3cnccc3[nH]2)c1=O)c1ccc(-c2ccccc2F)cc1 [Compound 417, (R)-N-((1H-pyrrolo[3,2-c]pyridin-2-yl)methyl)-2-(3-((1-(2′-fluoro-[1,1′-biphenyl]-4-yl)ethyl)amino)-6-morpholino-2-oxopyrazin-1(2H)-yl)acet-amide]
> 1000 | C[C@@H](Nc1cnc(N2CC(O)C2)n(CC(=O)NCc2cc3cnccc3[nH]2)c1=O)c1ccc2oc3ccccc3c2c1 [Compound 386, (R)-N-((1H-pyrrolo[3,2-c]pyridin-2-yl)methyl)-2-(5-((1-(dibenzo[b,d]furan-2-yl)ethyl)-amino)-2-(3-hydroxyazetidin-1-yl)-6-oxopyrimidin-1(6H)-yl)acetamide]
< 100 | O=C(Cn1c(N2CCOCC2)ncc(NC(=O)c2coc(-c3ccccc3)n2)c1=O)NCc1cc2cnccc2[nH]1 [Compound 413, N-(1-(2-(((1H-pyrrolo[3,2-c]pyridin-2-yl)methyl)amino)-2-oxoethyl)-2-morpholino-6-oxo-1,6-dihydropyrimidin-5-yl)-2-phenyloxazole-4-carbox-amide]

The remaining lines, values behind:

Compound | IC50 [nM]
Nc1cnc(-c2ccccc2)n(CC(=O)NCc2cc3cnccc3[nH]2)c1=O [Compound 317, N-((1H-pyrrolo[3,2-c]pyridin-2-yl)methyl)-2-(5-amino-6-oxo-2-phenylpyrimidin-1(6H)-yl)-acetamide] | < 100
O=C(Cn1c(-c2ccccc2)ncc(NC(=O)c2ccc(-c3ccc(OC(F)(F)F)cc3)cc2)c1=O)NCc1cc2cnccc2[nH]1 [Compound 164, N-(1-(2-(((1H-pyrrolo[3,2-c]pyridin-2-yl)methyl)amino)-2-oxoethyl)-6-oxo-2-phenyl-1,6-dihydropyrimidin-5-yl)-4′-(trifluoromethoxy)-[1,1′-biphenyl]-4-carboxamide] | < 100
O=C(Cn1c(-c2ccccc2)ncc(NC(=O)OCc2ccccc2)c1=O)NCc1cc2cnccc2[nH]1 [Compound 31, benzyl (1-(2-(((1H-pyrrolo[3,2-c]pyridin-2-yl)methyl)amino)-2-oxoethyl)-6-oxo-2-phenyl-1,6-dihydropyrimidin-5-yl)-carbamate] | > 1000
O=C(Cn1c(-c2ccccc2)ncc(NCCCc2ccc3sc4ccccc4c3c2)c1=O)NCc1cc2cnccc2[nH]1 [Compound 64, N-((1H-pyrrolo[3,2-c]pyridin-2-yl)methyl)-2-(5-((3-(dibenzo [b,d]thiophen-2-yl)propyl)-amino)-6-oxo-2-phenylpyrimi-din-1(6H)-yl)acetamide] | < 100
O=C(Cn1c(-c2ccccc2)ncc(NC(=O)NCC2CCCCC2)c1=O)NCc1cc2cnccc2[nH]1 [Compound 76, N-((1H-pyrrolo[3,2-c]pyridine-2-yl)methyl)-2-(5-(3-(cyclohexylmethyl)ureido)-6-oxo-2-phenylpyrimidin-1(6H)-yl)acetamide] | 100 to 1000
O=C(Cn1c(-c2ccccc2)ncc(NCCCCCc2ccccc2)c1=O)NCc1cc2cnccc2[nH]1 [Compound 3, N-((1H-pyrrolo[3,2-c]pyridin-2-yl)methyl)-2-(6-oxo-2-phen-yl-5-((5-phenylpentyl)amino)-pyrimidin-1(6H)-yl)acetamide] | < 100
O=C(Cn1c(-c2ccc(OCc3ccccc3)cc2)ncc(NCc2ccc3oc4ccccc4c3c2)c1=O)NCc1cc2cnccc2[nH]1 [Compound 155, N-((1H-pyrrolo[3,2-c]pyridin-2-yl)methyl)-2-(2-(4-(benzyl-oxy)phenyl)-5-((dibenzo[b,d]furan-2-ylmethyl)amino)-6-oxopyrimidin-1(6H)-yl)acet-amide] | < 100
O=C(Cn1c(-c2ccccc2)ncc(NCc2cc(-c3ccccc3F)on2)c1=O)NCc1cc2cnccc2[nH]1 [Compound 456, N-((1H-pyrrolo[3,2-c]pyridin-2-yl)methyl)-2-(5-(((5-(2-fluorophenyl)isoxazol-3-yl)-methyl)amino)-6-oxo-2-phen-ylpyrimidin-1(6H)-yl)acet-amide] | < 100
C[C@@H](Nc1ncc(-c2ccccc2F)n(CC(=O)NCc2cc3cnccc3[nH]2)c1=O)c1ccc(-c2ccccc2F)cc1 [Compound 418, (R)—N-((1H-Pyrrolo[3,2-c]pyridine-2-yl)methyl)-2-(3-((1-(2′-fluoro-[1,1′-biphenyl]-4-yl)ethyl)amino)-6-(2-fluorophenyl)-2-oxopyrazin-1(2H)-yl)acetamide] | < 100
O=C(Cn1c(-c2ccccc2)ncc(NCCOc2ccccc2)c1=O)NCc1cc2cnccc2[nH]1 [Compound 6, N-((1H-pyrrolo[3,2-c]pyridin-2-yl)methyl)-2-(6-oxo-5-((2-phenoxyethyl)amino)-2-phen-ylpyrimidin-1(6H)-yl)aceamide] | < 100
O=C(Cn1c(-c2ccccc2)ncc(NCc2ccc3oc4ccccc4c3c2)c1=O)NCc1cc2cnccc2s1 [Compound 141, 2-(5-((Dibenzo[b,d]furan-2-ylmethyl)amino)-6-oxo-2-phenylpyrimidin-1(6H)-yl)-N-(thieno[3,2-c]pyridin-2-ylmethyl)acetamide] | < 100
Cc1nc(-c2ccccc2)nc(OCC(=O)NCc2cc3cnccc3[nH]2)c1NCc1ccc2oc3ccccc3c2c1 [Compound 269, N-((1H-pyrrolo[3,2-c]pyridine-2-yl)methyl)-2-((5-((dibenzo[b,d]furan-2-ylmethyl)amino)-6-methyl-2-phenylpyrimidin-4-yl)oxy)acetamide] | > 1000
CO[C@@H]1CO[C@H]2[C@@H]1OC[C@H]2Oc1ccc(CCCNc2cnc(-c3ccccc3)n(CC(=O)NCc3cc4cnccc4[nH]3)c2=O)cc1 [Compound 192, N-((1H-pyrrolo[3,2-c]pyridine-2-yl)methyl)-2-(5-((3-(4-(((3R,3aR,6R,6aR)-6-methoxyhexahydrofuro[3,2-b]furan-3-yl)oxy)phenyl)propyl)amino)-6-oxo-2-phenylpyrimidin-1(6H)-yl)acetamide] | < 100
O=C(Cn1c(-c2ccccc2)ncc(NCCCc2ccc(Cl)cc2)c1=O)NCc1cc2cnccc2[nH]1 [Compound 27, N-((1H-pyrrolo[3,2-c]pyridin-2-yl)methyl)-2-(5-((3-(4-chlorophenyl)propyl)amino)-6-oxo-2-phenylpyrimidin-1(6H)-yl)acetamide] | < 100
